# Values of other authors, collected in patent publication US20100173012A1 (priority 2008, published 2010).
# Test system: Fusarium graminearum
# Details: previous work of the inventors
row,Structure (SMILES),use to reduce ascospore discharge in F. graminearum
1,OCC(O)CO [glycerol],successfully used
2,COc1ccc(Cl)cc1C(=O)NCCc1ccc(S(=O)(=O)NC(=O)NC2CCCCC2)cc1 [glyburide],successfully used
3,OC[C@@H](O)[C@@H](O)[C@H](O)[C@H](O)CO [mannitol],successfully used
4,COc1ccc(CCN(C)CCCC(C#N)(c2ccc(OC)c(OC)c2)C(C)C)cc1OC (stereo not shown) [verapamil],successfully used
5,CCN(CC)CCCCCCCCOC(=O)c1cc(OC)c(OC)c(OC)c1 [TMB8],successfully used
6,Cc1ccc(S(=O)(=O)NC(=O)NN2CCCCCC2)cc1 [Tolazamide],successfully used
7,O=C(O)CN(CC(=O)O)c1ccccc1OCCOc1ccccc1N(CC(=O)O)CC(=O)O [BAPTA],successfully used
